Consider 15 compounds from ChEMBL document CHEMBL6127035, “Novel pyridazinone derivatives bind to KSRP: Synthesis, anti-tumor biological evaluations and modelling insights” (Eur J Med Chem, 2024).

pIC50, pKd: −log10 of the molar value. Active and inactive are the calls of the source. The rule behind the calls is not given here. A value given as a limit tells only on which side of the number the result lay.

For one data set, the system named is HCT-116. Briefly: Antiproliferative activity against human HCT-116 cells assessed as reduction in cell viability incubated for 2 days by MTT assay. The settings on record: HCT-116, 48 h. Format: functional, cell-based. On the technique in general: Tetrazolium assays rely on reduction of a dye to a coloured formazan, in cell work by metabolically active cells.

Another data set relates to MDA-MB-231. Put plainly: Antiproliferative activity against human MDA-MB-231 cells assessed as reduction in cell viability incubated for 2 days by MTT assay. The data set is classed as functional, cell-based. The settings on record: MDA-MB-231, 48 h.
A further data set has as its system NCI-H460. Briefly: Antiproliferative activity against human NCI-H460 cells assessed as reduction in cell viability incubated for 2 days by MTT assay. The data set is classed as functional, cell-based. The note with it: NCI-H460, 48 h.
A further data set relates to U-87 MG. Briefly: Antiproliferative activity against human U-87 MG cells assessed as reduction in cell viability incubated for 2 days by MTT assay. Format: functional, cell-based, U-87MG ATCC. The note with it: 48 h.
In another data set the test system is MIA PaCa-2. Put plainly: Antiproliferative activity against human MIA PaCa-2 cells assessed as reduction in cell viability incubated for 2 days by MTT assay. The note with it: MIA PaCa-2, 48 h. Format: functional, cell-based.
The subject of a further data set is 4T1. Briefly: Antiproliferative activity against mouse 4T1 cells assessed as reduction in cell viability incubated for 2 days by MTT assay. The data set is classed as functional, cell-based. The settings on record: 4T1, 48 h.
Data set [1] is described as follows: Cytotoxicity against human L02 cells assessed as reduction in cell viability incubated for 2 days by MTT assay. Format: toxicity, cell-based.
The test system of another data set is A549. Briefly: Antiproliferative activity against human A549 cells assessed as reduction in cell viability incubated for 2 days by MTT assay. Format: functional, cell-based. The note with it: A549, 48 h.
The next data set has as its system MCF7. Put plainly: Antiproliferative activity against human MCF7 cells assessed as reduction in cell viability incubated for 2 days by MTT assay. The data set is classed as functional, cell-based. The settings on record: MCF7, 48 h.
The subject of a further data set is KB. Briefly: Antiproliferative activity against human KB cells assessed as reduction in cell viability incubated for 2 days by MTT assay. Format: functional, cell-based. The note with it: 48 h.
Data set [2] addresses T1, Far upstream element-binding protein 2 (Homo sapiens) (UniProt Q92945).
T1 sequence (whole entry): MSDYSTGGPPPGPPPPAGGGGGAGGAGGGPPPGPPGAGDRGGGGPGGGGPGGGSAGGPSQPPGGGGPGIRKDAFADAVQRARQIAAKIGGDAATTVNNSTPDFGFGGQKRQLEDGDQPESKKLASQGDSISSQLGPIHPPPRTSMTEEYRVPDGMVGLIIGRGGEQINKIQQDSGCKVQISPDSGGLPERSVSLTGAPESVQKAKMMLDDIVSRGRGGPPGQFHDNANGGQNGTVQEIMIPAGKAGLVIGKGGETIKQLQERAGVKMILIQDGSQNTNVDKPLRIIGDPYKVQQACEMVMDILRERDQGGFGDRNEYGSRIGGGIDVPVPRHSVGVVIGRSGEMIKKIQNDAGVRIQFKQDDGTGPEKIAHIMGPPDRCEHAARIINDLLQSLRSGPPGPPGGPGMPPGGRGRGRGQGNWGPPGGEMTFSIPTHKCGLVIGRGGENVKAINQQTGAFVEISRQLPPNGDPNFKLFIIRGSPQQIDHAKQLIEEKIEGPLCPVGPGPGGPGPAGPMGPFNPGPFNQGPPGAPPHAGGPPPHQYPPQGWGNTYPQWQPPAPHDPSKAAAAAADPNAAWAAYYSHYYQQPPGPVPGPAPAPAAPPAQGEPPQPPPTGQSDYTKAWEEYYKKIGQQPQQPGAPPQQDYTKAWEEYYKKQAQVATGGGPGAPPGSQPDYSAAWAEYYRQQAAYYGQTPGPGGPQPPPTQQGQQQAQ
Put plainly: Binding affinity to KSRP KH23 domain (214 to 413 residues) (unknown origin) extracted from Escherichia coli incubated overnight by SDS-PAGE based immunoblot analysis.

The target of data set [3] is T1, Far upstream element-binding protein 2 (Homo sapiens). Briefly: Binding affinity to full-length KSRP (1 to 715 residues) (unknown origin) extracted from Escherichia coli incubated overnight by SDS-PAGE based immunoblot analysis. In general terms: In western blotting, separated proteins are transferred to a membrane and probed.
Data set [4] has the same target. Briefly: Binding affinity to full length KSRP (unknown origin) incubated overnight by SDS-PAGE based immunoblot analysis.
The target in data set [5] is T2, Far upstream element-binding protein 2 (Homo sapiens, UniProt Q92945).
T2 sequence (Q92945 whole entry): T1 sequence (whole entry)
Put plainly: Binding affinity to recombinant full-length KSRP (unknown origin) assessed as dissociation constant by SPR analysis. For orientation: Surface plasmon resonance follows binding to a sensor surface in real time, without labels.

In data set [6] the target is T1, Far upstream element-binding protein 2 (Homo sapiens). Briefly: Binding affinity to recombinant full-length KSRP (unknown origin) by SPR analysis.

Turning to `CC(C)C(CO)NS(=O)(=O)c1ccc(-n2ncc(Cl)c(Cl)c2=O)cc1` (configuration not stated), the pIC50 – broadly, −log10 of the IC50, conventionally taken in molar units – with HCT-116 is 6.44; with MDA-MB-231, 4.84; with NCI-H460 it was 6.13; in the data set with U-87 MG, 6.44; in the data set with MIA PaCa-2, 6.38; with 4T1 it was 5.84. In addition, the values for the pIC50 in the data set with A549, in the data set on MCF7 and with KB were 5.90, 5.29 and 6.46, respectively. Moreover, the IC50 (in general, the concentration needed to halve the response being measured) at 2 days in data set [1] was 3.64 µM.
Take `CCN(C)S(=O)(=O)c1ccc(-n2ncc(Cl)c(Cl)c2=O)cc1`: the pIC50 in the data set on MDA-MB-231 is less than 4.30; in the data set with 4T1, 4.95; in the data set on MCF7, 5.39.
For `CCN(CCOCCNC(=O)OC(C)(C)C)S(=O)(=O)c1ccc(-n2ncc(Cl)c(Cl)c2=O)cc1` the same measures were 4.57, less than 5.00 and less than 4.70.
Take `CC(CO)NS(=O)(=O)c1ccc(-n2ncc(Cl)c(Cl)c2=O)cc1` (configuration not stated): the pIC50 is 6.06 with HCT-116; 5.12 in the data set on MDA-MB-231; 5.99 with NCI-H460; 6.24 in the data set on U-87 MG; 6.36 in the data set with MIA PaCa-2; 5.74 in the data set with 4T1. Moreover, the pIC50 is 5.68 in the data set on A549, 5.35 in the data set with MCF7 and 6.30 in the data set on KB. In data set [1], the IC50 at 2 days turned out to be 4.66 µM.
For `O=c1c(Cl)c(Cl)cnn1-c1ccc(S(=O)(=O)NCCCN2CCCC2)cc1`, the pIC50 in the data set with HCT-116 is 6.00; in the data set with MDA-MB-231, 5.04; in the data set on NCI-H460 it was 5.71; in the data set with U-87 MG, 6.15; with MIA PaCa-2, 6.06; in the data set with 4T1, 5.84. In addition, the figures for the negative logarithm of the IC50 (pIC50) with A549, in the data set on MCF7 and in the data set on KB were 5.74, 5.35 and 6.24, respectively. Moreover, the IC50 at 2 days in data set [1] came out at 8.15 µM.
`COCC(C)NS(=O)(=O)c1ccc(-n2ncc(NCCCCCNC(=O)CCCC[C@@H]3SC[C@@H]4NC(=O)N[C@@H]43)c(Cl)c2=O)cc1` (some centres not stated): the pIC50 with MIA PaCa-2 and with KB was less than 4.30 in each case.
In the case of `CN(CCOS(C)(=O)=O)S(=O)(=O)c1ccc(-n2ncc(Cl)c(Cl)c2=O)cc1`, the pIC50 with HCT-116 is 6.14; in the data set with MDA-MB-231, 4.79; with NCI-H460, 6.18; in the data set with U-87 MG it was 6.49; in the data set on MIA PaCa-2, 6.41; in the data set with 4T1, 5.68. The values for the pIC50 in the data set with A549, in the data set with MCF7 and in the data set on KB were 5.71, 5.29 and 6.42, respectively. Also, the IC50 at 2 days in data set [1] is 4.24 µM.
As to `COCCNS(=O)(=O)c1ccc(-n2ncc(Cl)c(Cl)c2=O)cc1`, the pIC50 in the data set on HCT-116 is 6.33; in the data set on MDA-MB-231 it was 5.22; with NCI-H460, 5.98; in the data set on U-87 MG, 6.24; in the data set with MIA PaCa-2, 6.41; in the data set on 4T1, 5.76. The pIC50 with A549 was 5.90; in the data set with MCF7 it was 5.30; in the data set with KB it was 6.33. Also, the IC50 at 2 days in data set [1] worked out at 4.07 µM.
Take `NCCCCNS(=O)(=O)c1ccc(-n2ncc(Cl)c(Cl)c2=O)cc1`: the pIC50 is less than 4.30 in the data set on MDA-MB-231, less than 5.00 in the data set with 4T1 and less than 4.70 in the data set with MCF7.
Consider `CCN(CCOC)S(=O)(=O)c1ccc(-n2ncc(Cl)c(Cl)c2=O)cc1`, for which the pIC50 in the data set on MDA-MB-231 was less than 5.00; in the data set on 4T1, 5.74; in the data set on MCF7, less than 5.00.
With `CNCCOc1cnn(-c2ccc(S(=O)(=O)N(C)CCOS(C)(=O)=O)cc2)c(=O)c1Cl`, the negative logarithm of the IC50 (pIC50) in the data set with MDA-MB-231 was less than 4.30; in the data set on 4T1, less than 5.00; in the data set on MCF7, less than 4.70.
As for `CCN(CCCN1CCCC1)S(=O)(=O)c1ccc(-n2ncc(OC)c(Cl)c2=O)cc1`, the negative-log IC50 (pIC50) in the data set on MDA-MB-231, in the data set with 4T1 and in the data set with MCF7 was less than 4.70 in each case.
On to `O=C(CCCC[C@@H]1SC[C@@H]2NC(=O)N[C@@H]21)NCCCCNS(=O)(=O)c1ccc(-n2ncc(Cl)c(Cl)c2=O)cc1`, for which the result in data set [2], in data set [3] and in data set [4] was Active. For the same compound, the pIC50 in the data set with MDA-MB-231 was 5.59; in the data set on MIA PaCa-2, 5.49; in the data set with 4T1, 5.67; in the data set with MCF7 it was 5.08; with KB, 5.17. Moreover, in data set [5], the pKd (commonly the Kd on a negative log10 scale, so that one unit is a factor of ten) is 4.75.
With `COCC(C)NS(=O)(=O)c1ccc(-n2ncc(Cl)c(Cl)c2=O)cc1` (configuration not stated), the pIC50 was 4.79 in the data set with MDA-MB-231, 5.39 in the data set with 4T1 and 5.09 in the data set with MCF7. Moreover, the Activity entry in [6] was “Dose-Dependent Effect”. Also, the pKd in data set [5] is 4.42.
With `CN(CCN(C)S(=O)(=O)c1ccc(-n2ncc(Cl)c(Cl)c2=O)cc1)S(=O)(=O)c1ccc(-n2ncc(Cl)c(Cl)c2=O)cc1`, the pIC50 in the data set with MDA-MB-231 was less than 4.30; in the data set on 4T1, less than 5.00; in the data set on MCF7, less than 4.70.
